Test results reported in patent US8288375B2, “Fungicidal bicyclic pyrazoles” (E.I. du Pont de Nemours and Company, priority 2007, dated 2012).

Legend:
Assay type in all cases: in vivo
[1] = test system: Phytophthora infestans; assay: whole plant or invertebrate; conditions: 200 ppm test suspension
[2] = test system: Erysiphe graminis f. sp. tritici; assay: Test A: wheat powdery mildew, test suspension sprayed on wheat seedlings, disease rating; conditions: 200 ppm test suspension; 100 = 100% disease control, 0 = no control
[3] = test system: Pythium aphanidermatum; assay: Test L: bluegrass pythium blight, test suspension sprayed on bluegrass seedlings, disease rating; conditions: 200 ppm test suspension;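 also: 200 ppm unless marked * meaning 40 ppm or ** meaning 10 ppm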
[4] = test system: Rhizoctonia oryzae; assay: Test I: turf brown patch, test suspension sprayed on creeping bent grass seedlings, disease rating; conditions: 200 ppm test suspension
[5] = test system: Puccinia recondite f sp. tritici; assay: Test B: wheat leaf rust, test suspension sprayed on wheat seedlings, disease rating; conditions: 200 ppm test suspension;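 also: 200 ppm unless marked * meaning 40 ppm or ** meaning 10 ppm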
[6] = test system: Plasmopara viticola; assay: Test K: grape downy mildew, grape seedlings inoculated and then sprayed, disease rating; conditions: 200 ppm test suspension
[7] = test system: Septoria nodorum; assay: Test D: wheat glume blotch, test suspension sprayed on wheat seedlings, disease rating; conditions: 200 ppm test suspension
[8] = test system: Botrytis cinerea; assay: Test H: tomato Botrytis, test suspension sprayed on tomato seedlings, disease rating; conditions: 200 ppm test suspension
[9] = test system: Fusarium graminearum; assay: whole plant or invertebrate; conditions: 200 ppm test suspension
[10] = test system: Colletotrichum orbiculare; assay: Test F: cucumber Colletotrichum anthracnose, test suspension sprayed on cucumber seedlings, disease rating; conditions: 200 ppm test suspension

Row | Structure (SMILES) | Test J disease control rating [1] | Test A disease control rating [2] | Test L disease control rating [3] | Test I disease control rating [4] | Test B disease control rating [5] | Test K disease control rating [6] | Test D disease control rating [7] | Test H disease control rating [8] | Test C disease control rating [9] | Test F disease control rating [10]
1 | Nc1nccc(-c2c(-c3ccc(F)cc3)nn3c2CCCC3)n1 [compound 10] | 64% | 90% | 42% | 0% | 99% | 0% | 87% | 63% | 99% | 0%
2 | CNc1nccc(-c2c(-c3ccc(F)cc3)nn3c2CCC3)n1 [compound 90] | 99% | 96% | 97% | 0% | 99% | 0% | 100% | 0% | 100% | 17%
3 | C=CCNc1nccc(-c2c(-c3ccc(F)cc3)nn3c2CCC3)n1 [compound 95] | 99% | 68% | 95% | 0% | 100% | 0% | 99% | 87% | 100% | 21%
4 | CCNc1nccc(-c2c(-c3ccc(F)cc3)nn3c2CCCC3)n1 [compound 18] | 99% | 96% | 100% | 0% | 100% | 0% | 97% | 74% | 100% | 98%
5 | CCC(C)Nc1nccc(-c2c(-c3ccc(F)cc3)nn3c2CCC3)n1 (stereo not drawn) [compound 85] | 67% | 0% | 100% | 16% | 99% | 0% | 82% | 52% | 100% | 88%
6 | CC(C)Nc1nccc(-c2c(-c3ccc(F)cc3)nn3c2CCC3)n1 [compound 91] | 0% | 74% | 88% | 0% | 99% | 0% | 98% | 99% | 100% | 16%
7 | CCC(C)CNc1nccc(-c2c(-c3ccc(F)cc3)nn3c2CCCC3)n1 (stereo not drawn) [compound 6] | 0% | 0% | 0% | 0% | 73% | 0% | 0% | 0% | 100% | 0%
8 | Fc1ccc(-c2nn3c(c2-c2ccnc(NC4CC4)n2)CCC3)cc1 [compound 92] | 99% | 94% | 99% | 0% | 99% | 0% | 99% | 90% | 100% | 80%
9 | C#CCNc1nccc(-c2c(-c3ccc(F)cc3)nn3c2CCCC3)n1 [compound 17] | 100% | 64% | 100% | 0% | 99% | 86% | 98% | 97% | 100% | 77%
10 | CCC(C)Nc1nccc(-c2c(-c3ccc(F)cc3)nn3c2CCCC3)n1 (stereo not drawn) [compound 19] | 31% | 26% | 93% | 0% | 99% | 0% | 98% | 74% | 100% | 66%
11 | C=CCNc1nccc(-c2c(-c3ccc(F)cc3)nn3c2CCCC3)n1 [compound 15] | 97% | 86% | 100% | 0% | 99% | 0% | 98% | 92% | 100% | 17%
12 | CCC(C)Nc1nccc(-c2c(-c3ccc(F)cc3)nn3c2CCCC3)n1 (stereo not drawn) [compound 20] | 99% | 78% | 100% | 0% | 99% | 0% | 99% | 96% | 100% | 88%
